# In EP2562249A1, “Engineered host cells and methods for the production of cis, cis-muconic acid” (Helmholtz-Zentrum für Infektionsforschung GmbH, priority 2011, dated 2013):
# T1: catA2 (catechol 1,2-dioxygenase) (Pseudomonas putida, UniProt Q88I35)
# T1 sequence (Q88I35 1-304): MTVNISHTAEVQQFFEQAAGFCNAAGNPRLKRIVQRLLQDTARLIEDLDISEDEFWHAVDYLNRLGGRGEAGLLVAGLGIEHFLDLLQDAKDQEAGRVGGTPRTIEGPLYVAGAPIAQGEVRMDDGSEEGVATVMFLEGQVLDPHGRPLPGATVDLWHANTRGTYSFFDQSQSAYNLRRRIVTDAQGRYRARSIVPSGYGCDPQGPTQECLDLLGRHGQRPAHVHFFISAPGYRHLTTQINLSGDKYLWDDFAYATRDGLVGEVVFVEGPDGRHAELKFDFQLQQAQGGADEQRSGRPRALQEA
# Experiments:
# [1] = test system: P. putida KT2440; test: Growth in the presence of the benzoate substrate analogues 3-FB or 3-CIB; type: cell-based; settings: MM with 10 mM succinate and 1 mM benzoate, increasing concentrations; 3-FB as compared to 3-CIB
# Description: To determine the optimal concentrations of the substrate analogues, P. putida KT2440 was grown in MM with 10 mM succinate and 1 mM benzoate in the presence of increasing concentrations of 3-FB or 3-CIB. The accumulation of fluorocatechol derivatives is known to result in a violet coloration of the medium. When P. putida KT2440 was exposed to 3-FB or 3-CIB a violet coloration of the medium was observed. […] Therefore, two independent batch cultures of NTG-treated P. putida KT2440 cells were cultivated in the presence of 20 mM 3-FB. Batch culture 1 was grown for 14 hours and batch culture 2 for 24 hours, after which the cultures were plated. Individual colonies were screened for their ability to grow with benzoate as the sole source of carbon and energy. Three mutants that could no longer grow using benzoate were isolated from batch 1 and 84 mutants were isolated from batch 2, which represented 0.1 % and 4.4 %, respectively, of the total amount of colonies that were screened. No mutants were found when the NTG-treated P. putida KT2440 cells were not exposed to 3-FB. All mutants accumulated cis, cis-muconate in the medium when grown with succinate in the presence of benzoate. Therefore, the disability of the further conversion of 2-fluoro-cis, cis-muconate by the muconate lactonizing enzyme seems to have caused the selective advantage. […]
# [2] = molecular target: T1, catA2 (catechol 1,2-dioxygenase); test: catA2 activity assay: increase in cis, cis-muconate from catechol measured at A256 with purified His-tagged enzyme; type: biochemical, P. putida KT2440
# Source text: (§1) Gene catA2 was amplified from the genome of P. putida KT2440 by PCR using the forward primer 5'- […]-'3 (SEQ ID No. 7) and the reverse primer 5'-[…]-'3 (SEQ ID No. 8) containing a NdeI and XhoI site, respectively. The PCR fragment was ligated into the pET-28a(+) expression vector (Novagen, USA). The catA2 insert was controlled by sequencing after amplification with the T7 and T7 term primer set (Eurofins MWG GmbH, Germany).
# (§2) pET-28a(+) with and without the catA2 insert were electro transformed into E. coli BLN21 and plated on LB with kanamycin (50 µg/mL). Transformants containing the plasmid with and without catA2 were grown overnight in 25 mL LB with kanamycin (50 µg/mL) at 37 °C with shaking. […] The purification of CatA2 was monitored with SDS-PAGE and Westernblotting using His-Tag antibodies (Abcam, U. K.).
# (§3) The activity of catA2 was assayed by measuring the increase in cis, cis-muconate concentration from catechol in a buffer containing 20 mM Tris-HCl, 0.125 M imidazole (pH 7.8) at A256 using an UV mc2® spectrophotometer (SAFAS, Monaco). In order to determine the km value of the enzyme, the conversion rate of catechol to cis, cis-muconate was measured at 10 different concentrations of catechol ranging between from 0.0001 to 0.05 mM. […] The values for Km, IC50, and Vmax were calculated by Graphpad Prism (Graphpad Software, Inc., USA).
# [3] = substrate: Oc1ccccc1O; test: as above; type: biochemical, P. putida KT2440; settings: other: substrate catechol, 0.0001 to 0.05 mM, 20 mM Tris-HCl, 0.125 M imidazole, pH 7.8, 37.0 °C
# Source text: as §1, §2, §3
molecule,measurement,setting,value
"O=C(O)c1cccc(F)c1 [3-FB, 3-fluorobenzoate]",Growth of P. putida KT2440,[1],more inhibited
"O=C(O)/C=C\C=C/C(=O)O [cis, cis-muconate]",IC50,"[2]; at a concentration of 0.05 mM catechol, cis, cis-muconate 0 to 0.2 mM",139 µM
same,Ki,[2]; calculated from Km and IC50 using the Cheng-Prusoff equation,2.8 µM
"catA2 (catechol 1,2-dioxygenase) (Pseudomonas putida KT2440) (protein) MTVNISHTAEVQQFFEQAAGFCNAAGNPRLKRIVQRLLQDTARLIEDLDISEDEFWHAVDYLNRLGGRGEAGLLVAGLGIEHFLDLLQDAKDQEAGRVGGTPRTIEGPLYVAGAPIAQGEVRMDDGSEEGVATVMFLEGQVLDPHGRPLPGATVDLWHANTRGTYSFFDQSQSAYNLRRRIVTDAQGRYRARSIVPSGYGCDPQGPTQECLDLLGRHGQRPAHVHFFISAPGYRHLTTQINLSGDKYLWDDFAYATRDGLVGEVVFVEGPDGRHAELKFDFQLQQAQGGADEQRSGRPRALQEA",Km,[3],1 µM
